In the supplement of paper PMC13380429:

Legend:
Conditions in all cases: 72 h
HepG2 [1] = test: relative viability EC50 (midpoint between 100% and the lowest measured viability); higher = less toxic
Vero E6 [2] = test: as above
U2OS [3] = test: as above
Caco-2 [4] = test: as above
Calu-3 [5] = test: as above
HepG2 [6] = test: drug sensitivity score (DSS) for viability; higher = more toxic; extreme values may be limits of the assay
Vero E6 [7] = test: as above
U2OS [8] = test: as above
Caco-2 [9] = test: as above
Calu-3 [10] = test: as above
HepG2 [11] = test: cell viability relative to DMSO; higher = less toxic
Vero E6 [12] = test: as above
U2OS [13] = test: as above
Caco-2 [14] = test: as above
Calu-3 [15] = test: as above

Row | SMILES | relative viability EC50 (HepG2 [1]) | relative viability EC50 (Vero E6 [2]) | relative viability EC50 (U2OS [3]) | relative viability EC50 (Caco-2 [4]) | relative viability EC50 (Calu-3 [5]) | drug sensitivity score (HepG2 [6]) | drug sensitivity score (Vero E6 [7]) | drug sensitivity score (U2OS [8]) | drug sensitivity score (Caco-2 [9]) | drug sensitivity score (Calu-3 [10]) | cell viability (HepG2 [11]; 1 nM) | cell viability (HepG2 [11]; 10 nM) | cell viability (HepG2 [11]; 100 nM) | cell viability (HepG2 [11]; 1000 nM) | cell viability (HepG2 [11]; 10000 nM) | cell viability (Vero E6 [12]; 1 nM) | cell viability (Vero E6 [12]; 10 nM) | cell viability (Vero E6 [12]; 100 nM) | cell viability (Vero E6 [12]; 1000 nM) | cell viability (Vero E6 [12]; 10000 nM) | cell viability (U2OS [13]; 1 nM) | cell viability (U2OS [13]; 10 nM) | cell viability (U2OS [13]; 100 nM) | cell viability (U2OS [13]; 1000 nM) | cell viability (U2OS [13]; 10000 nM) | cell viability (Caco-2 [14]; 1 nM) | cell viability (Caco-2 [14]; 10 nM) | cell viability (Caco-2 [14]; 100 nM) | cell viability (Caco-2 [14]; 1000 nM) | cell viability (Caco-2 [14]; 10000 nM) | cell viability (Calu-3 [15]; 1 nM) | cell viability (Calu-3 [15]; 10 nM) | cell viability (Calu-3 [15]; 100 nM) | cell viability (Calu-3 [15]; 1000 nM) | cell viability (Calu-3 [15]; 10000 nM)
1 | COc1ccc2c(c1)c(C1=C(c3c[nH]c4ccccc34)C(=O)NC1=O)cn2CCCN(C)C [go-6983] | 3.52 µM | > 10 µM | > 10 µM | > 10 µM | > 10 µM | 3.4 | 0.7 | 1.6 | 0.2 | 1.2 | 105% | 94.7% | 87.1% | 105% | 31.7% | 108% | 104% | 97.7% | 103% | 75.3% | 94.4% | 92.2% | 104% | 91.4% | 79.6% | 110% | 95.6% | 108% | 101% | 85.7% | 98.9% | 85.1% | 99% | 83.9% | 84%
2 | CCCN(CCC)C1Cc2cc(OC)c(OC)cc2C1 | > 10 µM | > 10 µM | > 10 µM | > 10 µM | > 10 µM | 0 | 0 | 0 | 0 | 0 | 96.1% | 106% | 101% | 99.8% | 94.6% | 103% | 103% | 103% | 102% | 99% | 102% | 97.5% | 100% | 99.5% | 104% | 96.6% | 99.6% | 94.1% | 98.3% | 89.9% | 96.9% | 108% | 92.3% | 93.7% | 108%
3 | Clc1cccc(N2CCNCC2)c1 [mCPP] | > 10 µM | > 10 µM | > 10 µM | > 10 µM | > 10 µM | 0 | 0 | 0 | 0 | 0 | 97.7% | 95.3% | 96% | 100% | 105% | 88.9% | 103% | 96.7% | 100% | 106% | 99.8% | 93.3% | 103% | 97.1% | 93.9% | 88.9% | 97% | 96.1% | 92.4% | 98.4% | 91.4% | 102% | 104% | 104% | 100%
